Assay results from patent publication US20230044787A1, “TRICYCLE DIHYDROIMIDAZOPYRIMIDONE DERIVATIVE, PREPARATION METHOD THEREOF, PHARMACEUTICAL COMPOSITION AND USE THEREOF” (priority 2019, published 2023).

What follows are compounds tested against T1, Lp-PLA2 (Homo sapiens, UniProt Q13093) (assay: Lipoprotein-associated phospholipase A2 (Lp-PLA2) human plasma assay (Thio-PAF assay)). Details: Comparison of activity data (I); pooled human plasma, 2-thio-PAF substrate, 30-min pre-incubation.
T1 construct: aliquoted and thawed 40 μL of pooled human plasma was previously added; from tissue; host or cells: pooled human plasma
T1 sequence (Q13093 22-441): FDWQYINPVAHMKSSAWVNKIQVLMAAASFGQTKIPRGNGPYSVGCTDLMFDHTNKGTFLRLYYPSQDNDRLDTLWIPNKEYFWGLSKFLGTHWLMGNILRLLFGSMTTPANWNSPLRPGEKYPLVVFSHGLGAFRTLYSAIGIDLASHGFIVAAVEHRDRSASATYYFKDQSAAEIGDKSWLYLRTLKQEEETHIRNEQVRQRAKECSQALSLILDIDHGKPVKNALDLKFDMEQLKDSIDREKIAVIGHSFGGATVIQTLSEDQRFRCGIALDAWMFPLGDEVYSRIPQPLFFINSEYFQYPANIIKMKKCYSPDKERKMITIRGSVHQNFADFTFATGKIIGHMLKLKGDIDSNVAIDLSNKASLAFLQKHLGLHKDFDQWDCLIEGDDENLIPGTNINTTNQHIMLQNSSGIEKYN
Format: biochemical

SMILES | IC50 [nM]
O=c1nc(OCc2cc(F)c(F)c(F)c2)cc2n1CC13CCC(CC1)N23 [Example 52, 3-((3,4,5-trifluorobenzyl)oxy)-7,8-dihydro-1H,6H,9H-6,8a-ethanopyrrolo[1′,2′:3,4] imidazo[1,2-c]pyrimidin-1-one] | 16
O=c1nc(OCc2cc(F)c(F)c(F)c2)cc2n1C[C@@H]1COCCN21 [Example 123 in WO2016011930A1, reference compound] | 75.3

Same assay, conditions: Lp-PLA2 human plasma assay (Thio-PAF), pooled human plasma, 30-min pre-incubation at room temperature

IC50 [nM] | SMILES
5.9 | O=c1nc(OCCc2ccc(Oc3cccc(C(F)(F)F)c3)cc2)cc2n1C[C@]13CO[C@H](CN21)C3 [Example 132, (3S,11aR)-7-(4-(3-(trifluoromethyl)phenoxy)phenethoxy)-3,4-dihydro-1H,9H,11H-3,11a-methanopyrimido[6′,1′:2,3] imidazo[5,1-c][1,4]oxazin-9-one]
2.6 | O=c1nc(OCc2ccc(Oc3ccnc(C(F)(F)F)c3)c(F)c2)cc2n1CC13CC(C(F)F)(CN21)C3 [Example 139, 7-(difluoromethyl)-3-((3-fluoro-4-((2-(trifluoromethyl)pyridin-4-yl)oxy)benzyl)oxy)-7,8-dihydro-1H,6H,9H-7,8a-methanopyrrolo[1′,2′:3,4] imidazo[1,2-c]pyrimidin-1-one]
6.5 | O=c1nc(OCc2cc(F)c(Oc3ccc(F)cc3)c(F)c2)cc2n1C[C@]13CO[C@H](CN21)C3 [Example 147]
5.1 | O=c1nc(OCc2cc(F)c(Oc3ccnc(C(F)(F)F)c3)c(F)c2)cc2n1CC13CCC(COC1)N23 (stereo not shown) [Example 112, 7-((3,5-difluoro-4-((2-(trifluoromethyl)pyridin-4-yl)oxy)benzyl)oxy)-3,4-dihydro-1H,9H,11H-4,11a-ethanopyrimido[6′,1′:2,3] imidazo[5,1-c][1,4]oxazin-9-one]
2.4 | CC12CCCN1c1cc(OCc3ccc(Oc4cccc(C(F)(F)F)c4)c(C#N)c3)nc(=O)n1C2 (stereo not shown) [Example 59, 5-(((8a-methyl-1-oxo-7,8,8a,9-tetrahydro-1H,6H-pyrrolo[1′,2′:3,4]imidazo [1,2-c]pyrimidin-3-yl)oxy)methyl)-2-(3-(trifluoromethyl)phenoxy) benzonitrile]
6.6 | O=c1nc(OCc2ccc(Oc3ccnc(C(F)(F)F)c3)cc2)cc2n1C[C@]13CO[C@H](CN21)C3 [Example 15, (3S,11aR)-7-((4-((2-(trifluoromethyl)pyridin-4-yl)oxy)benzyl)oxy)-3,4-dihydro-1H,9H,11H-3,11a-methanopyrimido[6′,1′:2,3] imidazo[5,1-c][1,4]oxazin-9-one]
2.4 | O=c1nc(OCc2cc(F)c(Oc3ccc(C(F)(F)F)cc3)c(F)c2)cc2n1C[C@]13CO[C@H](CN21)C3 [Example 144, (3S,11aR)-7-((3,5-difluoro-4-(4-(trifluoromethyl)phenoxy)benzyl)oxy)-3,4-dihydro-1H,9H,11H-3,11a-methanopyrimido[6′1′:2,3] imidazo[5,1-c][1,4]oxazin-9-one]
4.9 | CC12COCCN1c1cc(OCc3ccc(Oc4cc(C#N)cc(C(F)(F)F)c4)c(F)c3)nc(=O)n1C2 (stereo not shown) [Example 83]
3.9 | N#Cc1cc(COc2cc3n(c(=O)n2)C[C@]24CO[C@H](CN32)C4)ccc1Oc1cccc(C(F)(F)F)c1 [Example 19, 5-((((3S,11aR)-9-oxo-3,4-dihydro-1H,9H,11H-3,11a-methanopyrimido[6′,1′:2,3]imidazo[5,1-c][1,4]oxazin-7-yl)oxy)methyl)-2-(3-(trifluoromethyl)phenoxy) benzonitrile]
10.8 | Cn1cc(Oc2c(F)cc(COc3cc4n(c(=O)n3)C[C@]35CO[C@H](CN43)C5)cc2F)cn1 [Example 11, (3S,11aR)-7-((3,5-difluoro-4-((1-methyl-1H-pyrazol-4-yl)oxy)benzyl)oxy)-3,4-dihydro-1H,9H,11H-3,11a-methanopyrimido[6′,1′:2,3] imidazo[5,1-c][1,4]oxazin-9-one]
9.1 | O=c1nc(OCc2ccc(Oc3ccc(C(F)(F)F)nc3)c(F)c2)cc2n1CC13CC(CN21)C3 [Example 117, 3-((3-fluoro-4-((6-(trifluoromethyl)pyridin-3-yl)oxy)benzyl)oxy)-7,8-dihydro-1H,6H,9H-7,8a-methanopyrrolo[1′,2′:3,4] imidazo[1,2-c]pyrimidin-1-one]
4.8 | N#Cc1cc(Oc2ccc(COc3nc(=O)n4c(c3F)N3C[C@@H]5C[C@]3(CO5)C4)cc2F)cc(C(F)(F)F)c1 [Example 90]
3.4 | O=c1nc(OCc2ccc(Oc3ccnc(C(F)(F)F)c3)c(F)c2)cc2n1C[C@@]13C[C@@H](CN21)N(CC(F)(F)F)C3 [Example 173]
3.6 | O=c1nc(OCc2ccc(Oc3ccnc(OC(F)(F)F)c3)c(F)c2)cc2n1CC13CCC(CC1)N23 [Example 154, 3-((3-fluoro-4-((2-(trifluoromethoxy)pyridin-4-yl)oxy)benzyl)oxy)-7,8-dihydro-1H,6H,9H-6,8a-ethanopyrrolo[1′,2′:3,4] imidazo[1,2-c]pyrimidin-1-one]
10.9 | Cc1cc(Oc2c(F)cc(COc3nc(=O)n4c(c3F)N3C[C@@H]5C[C@]3(CO5)C4)cc2F)ccn1 [Example 89, (3S,11aR)-7-((3,5-difluoro-4-((2-methyl-pyridin-4-yl)oxy)benzyl)oxy)-6-fluoro-3,4-dihydro-1H,9H,11H-3,11a-methanopyrimido[6′,1′:2,3] imidazo[5,1-c][1,4]oxazin-9-one]
4.1 | O=c1nc(OCc2ccc(Oc3ccnc(OC(F)(F)F)c3)c(F)c2)cc2n1CC13CC(CN21)C3 [Example 153]
5.8 | O=c1nc(OCc2cc(F)c(Oc3cccc(F)c3)c(F)c2)cc2n1C[C@]13CO[C@H](CN21)C3 [Example 137]
4.6 | O=c1nc(OCc2ccc(Oc3ccc(Cl)c(C(F)(F)F)c3)c(F)c2)cc2n1C[C@]13CO[C@H](CN21)C3 [Example 14, (3S,11aR)-7-((4-(4-chloro-3-(trifluoromethyl)phenoxy)-3-fluorobenzyl)oxy)-3,4-dihydro-1H,9H,11H-3,11a-methanopyrimido[6′,1′:2,3] imidazo[5,1-c][1,4]oxazin-9-one]
6.1 | Cc1cc(Oc2c(F)cc(COc3cc4n(c(=O)n3)CC3(C)COCCN43)cc2F)ccn1 (stereo not shown) [Example 79, 7-((3,5-difluoro-4-((2-methyl-pyridin-4-yl)oxy)benzyl)oxy)-11a-methyl-3,4,11,11a-tetrahydro-1H,9H-pyrimido[6′,1′:2,3]imidazo [5,1-c][1,4]oxazin-9-one]
3.3 | CC12COCCN1c1cc(OCc3cc(F)c(Oc4cncc(C(F)(F)F)c4)c(F)c3)nc(=O)n1C2 (stereo not shown) [Example 80, 7-((3,5-difluoro-4-((5-(trifluoromethyl)pyridin-3-yl)oxy)benzyl)oxy)-11a-methyl-3,4,11,11a-tetrahydro-1H,9H-pyrimido[6′,1′:2,3]imidazo [5,1-c][1,4]oxazin-9-one]
6.2 | COc1c(OCCc2ccc(Oc3ccnc(C(F)(F)F)c3)c(F)c2)nc(=O)n2c1N1CC3CC1(C3)C2 [Example 191, 3-(3-fluoro-4-((2-(trifluoromethyl)pyridin-4-yl)oxy)phenethoxy)-4-methoxy-7,8-dihydro-1H,6H,9H-7,8a-methanopyrrolo[1′,2′:3,4] imidazo[1,2-c]pyrimidin-1-one]
6.5 | CC12CCCN1c1cc(OCc3cc(F)c(Oc4ccnc(OC(F)(F)F)c4)c(F)c3)nc(=O)n1C2 (stereo not shown) [Example 55, 3-((3,5-difluoro-4-((2-(trifluoromethoxy)pyridin-4-yl)oxy)benzyl)oxy)-8a-methyl-7,8,8a,9-tetrahydro-1H,6H-pyrrolo[1′,2′:3,4]imidazo [1,2-c]pyrimidin-1-one]

SMILES | IC50 [nM]
O=c1nc(OCc2cc(F)c(F)c(F)c2)cc2n1CC13CCC(CC1)N23 [Example 52, 3-((3,4,5-trifluorobenzyl)oxy)-7,8-dihydro-1H,6H,9H-6,8a-ethanopyrrolo[1′,2′:3,4] imidazo[1,2-c]pyrimidin-1-one] | 16
